Measured values taken from US7179612B2, “Method for detecting a lipoprotein-acute phase protein complex and predicting an increased risk of system failure or mortality” (bioMerieux, Inc., priority 2000, dated 2007).

Experiments:
VLDL/CRP complex [1] = biological target: T1, VLDL/CRP complex (Homo sapiens, UniProt P02741); assay: Inhibition of VLDL/CRP complex formation (Ca2+-dependent turbidity change); assay type: biochemical
T1 sequence (P02741 19-224): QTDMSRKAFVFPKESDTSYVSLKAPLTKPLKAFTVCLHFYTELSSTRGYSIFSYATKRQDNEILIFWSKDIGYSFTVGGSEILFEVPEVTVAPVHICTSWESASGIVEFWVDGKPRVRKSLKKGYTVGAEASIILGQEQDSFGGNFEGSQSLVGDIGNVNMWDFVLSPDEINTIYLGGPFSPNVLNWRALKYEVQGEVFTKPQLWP
Text: It is known that CRP binds directly to PC and that PC competes with lipoproteins for binding to CRP.

CRP = biological target: T2, CRP (Homo sapiens, UniProt P02741); assay: Direct binding of apo(B) to CRP
T2 construct: from tissue; host or cells: patient plasma (calcium precipitate, ammonium sulfate fractionation, Q-Sepharose peak 3)
T2 sequence (P02741 19-224): T1 sequence (P02741 19-224)

VLDL/CRP complex [2] = biological target: T1, VLDL/CRP complex; assay: Calcium concentration dependence of formation of the VLDL/CRP complex; assay type: biochemical; conditions: FIG. 38; read-out: calcium concentration at which complex formation is half maximal
Experimental: FIG. 38 is a graph depicting the calcium concentration dependence of formation of the VLDL/CRP complex. Complex formation is half maximal at 5.0 mM calcium.

Row | Compound | inhibition of complex formation (result in words) (VLDL/CRP complex [1]) | other results
1 | apo(B): apo-lipoprotein B, the major protein component of VLDL | – | direct binding to CRP (result in words) (CRP): can bind directly to CRP
2 | [Ca+2] [calcium] | – | EC50 (VLDL/CRP complex [2]): 5 mM
3 | NCCOP(=O)(O)O [phosphorylethanolamine] | inhibited | –

The next lines start with results.

Row | inhibition of complex formation (result in words) (VLDL/CRP complex [1]) | Compound | other results
4 | inhibited | phosphotidylcholine | –
5 | inhibited | phosphotidylethanolamine | –
6 | inhibited | NCCCCCC(=O)O [EACA] | IC50 (VLDL/CRP complex [1]; FIG. 40): 2.1 mM
